Literature values as cited in patent publication US11311573B2, “Pharmaceutical preparations and methods to manage weight and to modulate the gut microbiota” (XENO BIOSCIENCES INC., priority 2016, dated 2022).

Conditions: rat, based on chronic oral hydrogen peroxide treatment

O=C([O-])[O-].O=C([O-])[O-].OO.OO.OO.[Na+].[Na+].[Na+].[Na+] [sodium percarbonate, Sodium percarbonate]
No-observable-adverse-effect-level (NOAEL): 81 to 115 mg/kg/day
